Data taken from US8664391B2, “Amide compounds as boosters of antivirals” (Janssen R&D Ireland Ltd, priority 2008, dated 2014).
Where two headings read alike, the source gives them in different places.

Columns and labels:
[1] = test system: wild-type HIV-1 IIIB strain; assay: Antiviral activity in MT4 LTR-EGFP cellular assay; format: cell-based; conditions: Human immunodeficiency virus 1, 72 h; wild-type HIV-1 IIIB, MT4 LTR-EGFP cells, three days after infection; pEC50 = -log10(EC50); read-out: Antiviral Activity IIIB pEC50 (converted)
[2] = Cytotoxicity in mock-infected MT4 CMV-EGFP cells; format: cell-based; conditions: human, pCC50 = -log10(CC50), read-out: Toxicity MT4 pCC50 (converted)
in vitro = in vitro ADME, human; conditions: human, pH 7.4
CYP2D6 = biological target: T1, CYP2D6 (Homo sapiens, UniProt P10635); assay: CYP450 inhibition, fluorescent substrate assay, CYP2D6; format: biochemical; conditions: E. coli expressed CYP2D6, pH 7.4, probe AMMC (3 μM), 10 μM test compound, substrate AMMC 3 μM, read-out: 2D6-AMMC % inh.
T1 construct: host or cells: E. coli
Procedure, shortened: (§1)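 Test compounds were preincubated for 5 min at 37° C with CYP P450 enzyme and an NADPH generating system before phosphate-buffered (pH 7.4) fluorogenic substrate was added. Reactions were stopped with acetonitrile and the fluorescent product was read on a plate reader. Inhibition appears as loss of fluorescent signal.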

CYP2C9 = CYP2C9 (Homo sapiens, UniProt P11712); assay: CYP450 inhibition, fluorescent substrate assay, CYP2C9; format: biochemical; conditions: pH 7.4
Procedure, shortened: as §1

CYP3A4 = biological target: T2, CYP3A4 (Homo sapiens, UniProt P08684); assay: CYP450 inhibition, fluorescent substrate assay, CYP3A4; format: biochemical; conditions: 10 μM test compound
T2 construct: host or cells: E. coli
Procedure, shortened: as §1

CYP2C19 = biological target: T3, CYP2C19 (Homo sapiens, UniProt P33261); assay: CYP450 inhibition, fluorescent substrate assay, CYP2C19; format: biochemical; conditions: E. coli expressed CYP2C19, pH 7.4, probe CEC (25 μM), 10 μM test compound, substrate CEC 25 μM, read-out: 2C19-CEC % inh.
T3 construct: host or cells: E. coli
Procedure, shortened: as §1

CYP1A2 = biological target: T4, CYP1A2 (Homo sapiens, UniProt P05177); assay: CYP450 inhibition, fluorescent substrate assay, CYP1A2; format: biochemical; conditions: E. coli expressed CYP1A2, pH 7.4, probe CEC (5 μM), 10 μM test compound, substrate CEC 5 μM, read-out: 1A2-CEC % inh.
T4 construct: host or cells: E. coli
T4 sequence (P05177 1-516): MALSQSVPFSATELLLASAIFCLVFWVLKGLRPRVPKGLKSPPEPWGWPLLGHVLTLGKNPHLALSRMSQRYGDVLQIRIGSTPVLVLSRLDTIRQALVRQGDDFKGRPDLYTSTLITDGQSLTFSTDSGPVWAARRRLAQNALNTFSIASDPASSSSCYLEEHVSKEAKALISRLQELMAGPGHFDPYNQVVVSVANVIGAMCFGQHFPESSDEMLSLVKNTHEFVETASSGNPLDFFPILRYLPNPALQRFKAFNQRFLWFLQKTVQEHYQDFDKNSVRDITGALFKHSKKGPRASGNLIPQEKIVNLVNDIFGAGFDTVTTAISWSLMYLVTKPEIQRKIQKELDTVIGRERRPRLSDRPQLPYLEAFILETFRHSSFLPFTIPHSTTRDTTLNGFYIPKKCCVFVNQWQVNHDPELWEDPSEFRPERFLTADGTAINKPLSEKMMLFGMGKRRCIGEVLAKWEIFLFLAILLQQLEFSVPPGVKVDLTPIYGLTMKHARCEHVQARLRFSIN
Procedure, shortened: as §1

T2 sequence (P08684 whole entry): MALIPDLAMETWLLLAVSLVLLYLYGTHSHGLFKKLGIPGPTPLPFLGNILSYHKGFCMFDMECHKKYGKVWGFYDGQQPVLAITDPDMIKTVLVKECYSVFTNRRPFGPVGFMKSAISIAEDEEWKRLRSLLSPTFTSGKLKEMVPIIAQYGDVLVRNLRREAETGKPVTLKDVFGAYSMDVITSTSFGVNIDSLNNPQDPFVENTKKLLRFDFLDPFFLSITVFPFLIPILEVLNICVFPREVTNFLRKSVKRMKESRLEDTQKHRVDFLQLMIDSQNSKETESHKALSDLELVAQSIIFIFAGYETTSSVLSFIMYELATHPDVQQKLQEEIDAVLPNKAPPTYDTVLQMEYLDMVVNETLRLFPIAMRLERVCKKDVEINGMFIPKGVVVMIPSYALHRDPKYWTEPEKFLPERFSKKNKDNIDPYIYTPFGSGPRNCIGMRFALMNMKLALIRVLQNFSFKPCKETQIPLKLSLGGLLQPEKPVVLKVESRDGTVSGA
T1 sequence (P10635 whole entry): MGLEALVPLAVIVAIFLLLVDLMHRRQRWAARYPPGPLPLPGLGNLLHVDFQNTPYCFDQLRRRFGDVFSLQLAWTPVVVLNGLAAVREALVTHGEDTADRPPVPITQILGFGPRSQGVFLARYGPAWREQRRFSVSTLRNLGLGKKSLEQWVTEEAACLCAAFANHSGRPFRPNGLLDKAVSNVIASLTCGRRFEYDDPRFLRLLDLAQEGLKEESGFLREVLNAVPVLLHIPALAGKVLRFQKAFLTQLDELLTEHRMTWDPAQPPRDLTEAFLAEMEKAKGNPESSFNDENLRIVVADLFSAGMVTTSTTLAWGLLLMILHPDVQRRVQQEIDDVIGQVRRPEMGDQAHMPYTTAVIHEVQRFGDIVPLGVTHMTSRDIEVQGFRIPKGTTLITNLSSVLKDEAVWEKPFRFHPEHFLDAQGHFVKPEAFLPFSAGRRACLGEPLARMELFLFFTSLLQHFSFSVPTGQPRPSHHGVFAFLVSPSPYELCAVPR
T3 sequence (P33261 whole entry): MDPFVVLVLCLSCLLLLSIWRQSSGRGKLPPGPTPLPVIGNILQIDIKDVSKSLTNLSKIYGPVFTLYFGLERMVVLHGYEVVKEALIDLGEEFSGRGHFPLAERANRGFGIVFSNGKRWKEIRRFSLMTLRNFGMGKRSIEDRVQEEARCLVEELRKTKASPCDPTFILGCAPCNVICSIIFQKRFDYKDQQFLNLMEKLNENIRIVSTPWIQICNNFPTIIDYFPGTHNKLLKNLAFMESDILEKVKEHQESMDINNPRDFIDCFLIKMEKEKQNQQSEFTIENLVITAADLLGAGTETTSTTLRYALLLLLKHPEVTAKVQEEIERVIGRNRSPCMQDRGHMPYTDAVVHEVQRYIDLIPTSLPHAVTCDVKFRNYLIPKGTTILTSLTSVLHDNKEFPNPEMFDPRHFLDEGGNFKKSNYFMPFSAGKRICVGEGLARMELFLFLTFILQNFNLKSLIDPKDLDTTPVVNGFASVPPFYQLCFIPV
CYP2C9, sequence (P11712 whole entry): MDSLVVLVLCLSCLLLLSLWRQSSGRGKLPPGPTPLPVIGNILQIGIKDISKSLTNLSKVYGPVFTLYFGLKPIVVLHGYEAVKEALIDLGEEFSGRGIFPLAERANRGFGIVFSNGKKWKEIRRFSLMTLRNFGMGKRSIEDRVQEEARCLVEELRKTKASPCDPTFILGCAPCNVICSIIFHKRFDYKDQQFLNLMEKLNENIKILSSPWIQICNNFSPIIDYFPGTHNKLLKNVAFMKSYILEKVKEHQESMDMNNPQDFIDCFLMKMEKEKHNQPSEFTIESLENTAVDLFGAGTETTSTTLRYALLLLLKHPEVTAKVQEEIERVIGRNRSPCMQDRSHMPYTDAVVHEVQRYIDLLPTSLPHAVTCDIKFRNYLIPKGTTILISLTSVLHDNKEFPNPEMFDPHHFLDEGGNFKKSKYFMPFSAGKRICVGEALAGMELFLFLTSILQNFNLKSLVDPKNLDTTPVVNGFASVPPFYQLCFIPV

- EC50 [1]: 74.1 µM
- recovery at 15 min, 5 μM (in vitro): 98%
- inhibition at 45 min, 10 μM (CYP2D6): 86%
- inhibition at 30 min, 10 μM (CYP2C9): 84%
- inhibition at 30 min, 10 μM (CYP3A4; E. coli expressed CYP3A4, pH 7.4, probe BFC (150 μM), substrate BFC 150 μM, read-out: 3A4-BFC % inh.): 101%
- inhibition at 30 min, 10 μM (CYP3A4; E. coli expressed CYP3A4, pH 7.4, probe BQ (60 μM), substrate BQ 60 μM, read-out: 3A4-BQ % inh.): 81%
- inhibition at 10 min, 10 μM (CYP3A4; E. coli expressed CYP3A4, pH 7.4, probe DBF (1 μM), substrate DBF 1 μM, 10 min, read-out: 3A4-DBF % inh.): 90%
- inhibition at 30 min, 10 μM (CYP2C19): 96%
- inhibition at 15 min, 10 μM (CYP1A2): 10%
Compound: O=C(N[C@@H](Cc1ccccc1)[C@H](O)CN(CC1CCCCC1)C(=O)c1ccncc1)OCc1cncs1 [Compound C27]
- CC50 at 3 days [2]: 83.2 µM
